Data set [1] relates to L6. Briefly: Cytotoxicity against rat L6 cells after 72 hrs by fluorometric analysis. Format: cell-based. As to conditions: L6, 72 h.
The test system of data set [2] is Plasmodium falciparum. In words: Antimalarial activity against Plasmodium falciparum K1 assessed as inhibition of [3H] hypoxanthine uptake by liquid scintillation counting. Format: functional, organism-based.
A short description of data set [3]: Selectivity index, ratio of IC50 for rat L6 cells to IC50 for Plasmodium falciparum K1 by [3H] hypoxanthine uptake inhibition assay. Format: toxicity, cell-based. The following applies: rat L6 cells versus Plasmodium falciparum K1, read-out: Ratio IC50.
For data set [4], the system named is Mycobacterium tuberculosis. Briefly: Antimycobacterial activity Mycobacterium tuberculosis H37Rv assessed as growth inhibition measured at day 7 by broth microdilution method. In kind it is functional. The following applies: 168 h. (Broth dilution looks for growth in wells or tubes with falling amounts of substance.)

The structures appear in SMILES notation. In brackets after ≈: the same amount, converted by molar mass.

The term IC50 denotes the point on the concentration scale where inhibition reaches its midpoint. The term MIC99 denotes an inhibitory concentration at the 99% level, which refers to growth in some studies and to a panel of isolates in others.

With `CC(C)(C)n1nnnc1C(NCCNc1ccnc2cc(Cl)ccc12)c1ccc(CO[C@@H]2COc3nc([N+](=O)[O-])cn3C2)cc1` (some centres undefined), the values for the IC50 in data set [1] and in data set [2] were 24.6 µM and 0.1 µM, respectively. Moreover, the selectivity ratio in data set [3] worked out at 246. For the same compound, the MIC99 in data set [4] was 0.313 µM (≈ 0.198 µg/mL).
On to `CC(C)(C)n1nnnc1C(NCCCNc1ccnc2cc(Cl)ccc12)c1ccc(CO[C@@H]2COc3nc([N+](=O)[O-])cn3C2)cc1` (some centres undefined), for which the concentration for half-maximal inhibition (IC50) in data set [1] was 41.5 µM; in data set [2], 0.485 µM. In addition, in data set [3], the selectivity ratio was 85.
Turning to `CC(C)(C)n1nnnc1C(NCCCCNc1ccnc2cc(Cl)ccc12)c1ccc(CO[C@@H]2COc3nc([N+](=O)[O-])cn3C2)cc1` (some centres undefined), the IC50 is 29.3 µM in data set [1] and 0.164 µM in data set [2]. Besides, in data set [3], the selectivity ratio was found to be 175. Also, in data set [4], the MIC99 is 0.625 µM (≈ 0.413 µg/mL).
Consider `COc1cc(NC(C)CCCNC(c2ccc(CO[C@@H]3COc4nc([N+](=O)[O-])cn4C3)cc2)c2nnnn2C(C)(C)C)c2ncccc2c1` (some centres undefined), for which the values for the IC50 in data set [1] and in data set [2] were 75.9 µM and 2.04 µM, respectively. In data set [3], the selectivity ratio came to 37. The MIC99 in data set [4] is 0.625 µM (≈ 0.419 µg/mL).
On the same counts, the results for `COc1cc(NC(C)CCCNC(c2cccc(CO[C@@H]3COc4nc([N+](=O)[O-])cn4C3)c2)c2nnnn2C(C)(C)C)c2ncccc2c1` (some centres undefined) are 143 µM, 0.985 µM, 145 and 5 µM (≈ 3.35 µg/mL).
`CN(CCO)CCNc1ccnc2cc(Cl)ccc12`: the IC50 in data set [1] came to 77.6 µM; in data set [2], 0.078 µM. Besides, the selectivity ratio in data set [3] is 995. The MIC99 in data set [4] was more than 160 µM.
For the compound `CN(CCO)CCCNc1ccnc2cc(Cl)ccc12`, the half-inhibitory concentration (IC50) in data set [1] was found to be 24.8 µM; in data set [2] it was 0.391 µM. Also, the selectivity ratio in data set [3] turned out to be 63. Moreover, the MIC99 in data set [4] was more than 160 µM.
On to `O=[N+]([O-])c1cn2c(n1)OC[C@@H](OCCCNc1ccnc3cc(Cl)ccc13)C2`, for which the IC50 is 134 µM in data set [1] and 10.5 µM in data set [2]. Moreover, the selectivity ratio in data set [3] came out at 12.8. Further, the MIC99 in data set [4] came out at 1.25 µM (≈ 0.505 µg/mL).
Regarding `O=Cc1ccc(CO[C@@H]2COc3nc([N+](=O)[O-])cn3C2)cc1`, the MIC99 in data set [4] worked out at 0.25 µM (≈ 0.0758 µg/mL).
Consider `O=Cc1cccc(CO[C@@H]2COc3nc([N+](=O)[O-])cn3C2)c1`, for which the IC50 worked out at 34.3 µM in data set [1] and 62.6 µM in data set [2]. Moreover, the selectivity ratio in data set [3] was determined as 0.54. For the same compound, the MIC99 in data set [4] turned out to be 0.625 µM (≈ 0.19 µg/mL).
On the same counts, the results for `CN(C)C(c1ccc(CO[C@@H]2COc3nc([N+](=O)[O-])cn3C2)cc1)c1nnnn1C(C)(C)C` (some centres undefined) are 177 µM, 15.8 µM, 11.2 and 0.625 µM (≈ 0.285 µg/mL).
The matching figures for `CCN(CC)C(c1ccc(CO[C@@H]2COc3nc([N+](=O)[O-])cn3C2)cc1)c1nnnn1C(C)(C)C` (some centres undefined): 113 µM, 7.95 µM, 14.2 and 0.313 µM (≈ 0.152 µg/mL).
The matching figures for `CC(C)(C)n1nnnc1C(c1ccc(CO[C@@H]2COc3nc([N+](=O)[O-])cn3C2)cc1)N1CCCC1` (some centres undefined): 75.2 µM, 8.7 µM, 8.65 and 0.313 µM (≈ 0.151 µg/mL).
As for `OCCNc1ccnc2cc(Cl)ccc12`, the IC50 came out at 233 µM in data set [1] and 1.47 µM in data set [2]. In addition, in data set [3], the selectivity ratio turned out to be 159. Besides, the MIC99 in data set [4] was more than 160 µM.
The matching figures for `OCCCNc1ccnc2cc(Cl)ccc12`: 178 µM, 1.09 µM, 164 and more than 160 µM.
`O=[N+]([O-])c1cn2c(n1)OC[C@@H](O)C2`: the values for the IC50 in data set [1] and in data set [2] were 331 µM and more than 270 µM, respectively. In addition, the MIC99 in data set [4] amounted to 40 µM (≈ 7.41 µg/mL).
On to `NCCNc1ccnc2cc(Cl)ccc12`, for which the IC50 in data set [1] amounted to 21.2 µM; in data set [2] it was 0.298 µM. In addition, the selectivity ratio in data set [3] amounted to 71.2. For the same compound, the MIC99 in data set [4] is more than 160 µM.
As to `CCN(CC)CCCC(C)Nc1ccnc2cc(Cl)ccc12` (centres undefined) [CHLOROQUINE], the MIC99 in data set [4] is more than 160 µM.
On to `NC[C@H]1O[C@H](O[C@H]2[C@H](O)[C@@H](O[C@H]3O[C@H](CO)[C@@H](O)[C@H](N)[C@H]3O)[C@H](N)C[C@@H]2N)[C@H](O)[C@@H](O)[C@@H]1O` [KANAMYCIN], for which, in data set [4], the MIC99 amounted to 5.4 µM (≈ 2.62 µg/mL).
`COc1cc([C@@H]2c3cc4c(cc3[C@H](O)[C@H]3COC(=O)[C@H]23)OCO4)cc(OC)c1OC` [PODOFILOX] returned an IC50 in data set [1] of 0.0193 µM.
As for `COc1cc(NC(C)CCCN)c2ncccc2c1` (centres undefined) [PRIMAQUINE], in data set [2], the IC50 was determined as 0.643 µM. The MIC99 in data set [4] was 80 µM (≈ 20.7 µg/mL).
On to `CN[C@@H]1[C@H](O[C@H]2[C@H](O[C@H]3[C@H](O)[C@@H](O)[C@H](N=C(N)N)[C@@H](O)[C@@H]3N=C(N)N)O[C@@H](C)[C@]2(O)C=O)O[C@@H](CO)[C@H](O)[C@H]1O` [STREPTOMYCIN], for which, in data set [4], the MIC99 worked out at 0.27 µM (≈ 0.157 µg/mL).

The record behind these values is ChEMBL document CHEMBL2331487, “Synthesis and antiplasmodial and antimycobacterial evaluation of new nitroimidazole and nitroimidazooxazine derivatives” (ACS Med Chem Lett, 2013).
